Laboratory results reported in ChEMBL document CHEMBL4725289, “Structure-activity relationship studies for the development of inhibitors of murine adipose triglyceride lipase (ATGL)” (Bioorg Med Chem, 2020).

Legend:
[1] = target: T1, Patatin-like phospholipase domain-containing protein 2 (Mus musculus, UniProt Q8BJ56); experiment: Inhibition of murine ATGL expressed in COS-7 cells; type: cell-based
T1 sequence (Q8BJ56 whole entry): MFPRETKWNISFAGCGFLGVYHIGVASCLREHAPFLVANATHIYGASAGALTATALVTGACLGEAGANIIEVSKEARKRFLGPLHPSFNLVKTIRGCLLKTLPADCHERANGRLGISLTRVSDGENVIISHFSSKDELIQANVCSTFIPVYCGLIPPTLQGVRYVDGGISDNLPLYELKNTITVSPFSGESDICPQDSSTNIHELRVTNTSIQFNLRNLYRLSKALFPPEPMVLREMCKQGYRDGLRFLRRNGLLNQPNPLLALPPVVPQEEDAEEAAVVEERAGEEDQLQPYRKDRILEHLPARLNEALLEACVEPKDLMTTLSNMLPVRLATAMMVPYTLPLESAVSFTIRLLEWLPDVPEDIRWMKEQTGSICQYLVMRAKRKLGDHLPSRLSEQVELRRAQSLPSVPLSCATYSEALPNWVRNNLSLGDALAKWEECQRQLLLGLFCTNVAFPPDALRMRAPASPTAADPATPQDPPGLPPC

[2] = target: T2, Patatin-like phospholipase domain-containing protein 2 (Mus musculus) (UniProt Q8BJ56); experiment: Inhibition of murine ATGL expressed in COS-7 cells at 200 uM relative to control; type: cell-based
T2 sequence (whole entry): T1 sequence (Q8BJ56 whole entry)

[3] = target: T1, Patatin-like phospholipase domain-containing protein 2; experiment: Inhibition of recombinant murine ATGL expressed in Escherichia coli XL-1 lysates; type: subcellular
[4] = target: T2, Patatin-like phospholipase domain-containing protein 2 (Mus musculus); experiment: Inhibition of recombinant murine ATGL expressed in Escherichia coli XL-1 lysates at 200 uM relative to control; type: subcellular

## CC(C)COC(=O)Nc1cccc(-c2ccc(N(C)C)cc2)c1
[1]
  IC50: 22 µM
[2]
  inhibition: 90%

## CCOC(=O)c1cccc(-c2ccc3[nH]ccc3c2)c1
[1]
  IC50: 60 µM
[2]
  inhibition: 80%

## CN(C)c1ccc(-c2cccc(N)c2)cc1
[1]
  IC50: 100 µM
[2]
  inhibition: 70%

## CCOC(=O)c1cccc(-c2ccc(C(=O)CN(C)C)cc2)c1
[1]
  IC50: 200 µM
[2]
  inhibition: 20%
[3]
  IC50: 200 µM
[4]
  inhibition: 4%

## CCOc1ccc(-c2ccccc2)cc1
[1]
  IC50: > 200 µM
[2]
  inhibition: 35%

## CCOC(=O)Nc1cccc(-c2ccc(N(C)C)cc2)c1
[1]
  IC50: 3 µM
[2]
  inhibition: 93%

## CCOc1ccc(-c2cccc(C(=O)OCCOCCOC)c2)cc1
[1]
  IC50: > 200 µM
[2]
  inhibition: 43%

## CCOc1ccc(-c2cccc(S(=O)(=O)NC)c2)cc1
[1]
  IC50: 200 µM
[2]
  inhibition: 47%

## CCOC(=O)c1cccc(-c2ccc(OCC)nc2)c1
[1]
  IC50: 130 µM
[2]
  inhibition: 68%

## CCOc1ccc(-c2cccc(C(=O)NC)c2)cc1
[1]
  IC50: > 200 µM
[2]
  inhibition: 40%

## CCOC(=O)c1cccc(-c2ccc(CN3CCN(C)CC3)cc2)c1
[1]
  IC50: > 200 µM
[2]
  inhibition: 26%
[3]
  IC50: > 200 µM
[4]
  inhibition: 32%

## CCOC(=O)c1cccc(-c2ccc(CN3CCCC3)cc2)c1
[1]
  IC50: > 200 µM
[2]
  inhibition: 33%

## CCNC(=O)c1cccc(-c2ccc(OCC)cc2)c1
[1]
  IC50: 90 µM
[2]
  inhibition: 62%

## CCOc1ccc(-c2cccc(N)c2)cc1
[1]
  IC50: 100 µM
[2]
  inhibition: 65%

## CCOc1ccc(-c2cccc(NC(=O)N(C)C)c2)cc1
[1]
  IC50: 70 µM
[2]
  inhibition: 68%
[3]
  IC50: 9 µM
[4]
  inhibition: 83%

## CCOC(=O)N(C)c1cccc(-c2ccc(N(C)C)cc2)c1
[1]
  IC50: > 200 µM
[2]
  inhibition: 20%

## CCOC(=O)c1ccc(-c2ccc(OCC)cc2)s1
[1]
  IC50: 70 µM
[2]
  inhibition: 81%

## CCOC(=O)c1cccc(-c2ccc(C(C)N3CCN(C)CC3)cc2)c1 (stereo unspecified)
[1]
  IC50: 90 µM
[2]
  inhibition: 69%
[3]
  IC50: 200 µM
[4]
  inhibition: 30%

## CCOC(=O)c1cccc(-c2ccc(C)cc2)c1
[1]
  IC50: 140 µM
[2]
  inhibition: 63%

## CCOC(=O)c1cccc(-c2ccc(CN3CCN(S(C)(=O)=O)CC3)o2)c1
[1]
  IC50: 100 µM
[2]
  inhibition: 66%

## CCCCCCOC(=O)c1cccc(-c2ccc(OCC)cc2)c1
[1]
  IC50: > 200 µM
[2]
  inhibition: 48%

## CCOC(=O)c1cccc(-c2ccc([N+](=O)[O-])cc2)c1
[1]
  IC50: 95 µM
[2]
  inhibition: 63%

## CCOc1ccc(-c2cccc([N+](=O)[O-])c2)cc1
[1]
  IC50: > 200 µM
[2]
  inhibition: 35%

## CCOc1ccc(-c2cccc(C(=O)OCC(F)(F)F)c2)cc1
[1]
  IC50: 120 µM
[2]
  inhibition: 71%

## CCOC(=O)c1cccc(-c2ccsc2)c1
[1]
  IC50: 75 µM
[2]
  inhibition: 67%

## CC(C)OC(=O)Nc1cccc(-c2ccc(N(C)C)cc2)c1
[1]
  IC50: 82 µM
[2]
  inhibition: 69%

## CCOc1ccc(-c2cccc(S(=O)(=O)N(C)C)c2)cc1
[1]
  IC50: 110 µM
[2]
  inhibition: 63%

## CN(C)C(=O)N(C)c1cccc(-c2ccc(N(C)C)cc2)c1
[1]
  IC50: 70 µM
[2]
  inhibition: 74%

## CCOC(=O)c1ccnc(-c2ccc(OCC)cc2)c1
[1]
  IC50: 80 µM
[2]
  inhibition: 87%

## CN(C)c1ccc(-c2cccc(NC(=O)C(C)(C)C)c2)cc1
[1]
  IC50: > 200 µM
[2]
  inhibition: 25%

## CN(C)c1ccc(-c2cccc(NC(=O)OCc3ccccc3)c2)cc1
[1]
  IC50: > 200 µM
[2]
  inhibition: 50%

## CCOc1ccc(-c2cccc(C(=O)Oc3ccc([N+](=O)[O-])cc3)c2)cc1
[1]
  IC50: 150 µM
[2]
  inhibition: 56%

## CCNS(=O)(=O)c1cccc(-c2ccc(OCC)cc2)c1
[1]
  IC50: 200 µM
[2]
  inhibition: 46%

## CCOC(=O)c1cccc(-c2ccc(CN(C)C)o2)c1
[1]
  IC50: 190 µM
[2]
  inhibition: 53%

## CCOC(=O)c1cccc(-c2ccccc2)c1
[1]
  IC50: 200 µM
[2]
  inhibition: 52%

## CCOC(=O)c1cccc(-c2ccc(OCC)c(N)c2)c1
[1]
  IC50: 140 µM
[2]
  inhibition: 59%

## CCOC(=O)c1cccc(-c2cccs2)c1
[1]
  IC50: 90 µM
[2]
  inhibition: 55%

## CN(C)c1ccc(-c2cccc(NC(=O)N3CCOCC3)c2)cc1
[1]
  IC50: > 200 µM
[2]
  inhibition: 31%

## CCOC(=O)c1cccc(-c2ccc(CN(C)C)cc2)c1
[1]
  IC50: 150 µM
[2]
  inhibition: 67%

## CCOC(=O)c1cccc(-c2ccc(OCC)c([N+](=O)[O-])c2)c1
[1]
  IC50: 200 µM
[2]
  inhibition: 44%

## CCOC(=O)c1cn(-c2ccc(OCC)cc2)nn1
[3]
  IC50: > 200 µM
[4]
  inhibition: 43%

## CCOC(=O)c1ccc(-c2ccc(OCC)cc2)[nH]1
[1]
  IC50: > 200 µM
[2]
  inhibition: 44%

## CCOC(=O)c1cccc(-c2ccc(O)cc2)c1
[1]
  IC50: 100 µM
[2]
  inhibition: 77%

## CCOC(=O)c1cccc(-c2ccc(C(C)=O)cc2)c1
[1]
  IC50: 200 µM
[2]
  inhibition: 36%
[3]
  IC50: 200 µM
[4]
  inhibition: 17%

## CCOc1ccc(-c2cccc(C)c2)cc1
[1]
  IC50: 70 µM
[2]
  inhibition: 54%

## CCOC(=O)c1ccc(-c2ccc(OCC)cc2)o1
[1]
  IC50: 50 µM
[2]
  inhibition: 93%

## CN(C)c1ccc(-c2cccc([N+](=O)[O-])c2)cc1
[1]
  IC50: > 200 µM
[2]
  inhibition: 21%

## CN(C)c1ccc(-c2cccc(NC(=O)Oc3ccccc3)c2)cc1
[1]
  IC50: 73 µM
[2]
  inhibition: 75%

## CCOC(=O)c1cccc(-c2ccncc2)c1
[1]
  IC50: > 200 µM
[2]
  inhibition: 40%

## CCOc1ccc(-c2cccc(C(=O)O)c2)cc1
[1]
  IC50: > 200 µM
[2]
  inhibition: 23%

## CCOC(=O)C1CCCC(c2ccc(OCC)cc2)N1 (stereo unspecified)
[1]
  IC50: > 200 µM
[2]
  inhibition: 48%

## CCOC(=O)c1cccc(-c2ccc(CN3CCN(S(C)(=O)=O)CC3)cc2)c1
[1]
  IC50: 100 µM
[2]
  inhibition: 68%
[3]
  IC50: 100 µM
[4]
  inhibition: 68%

## CCOC(=O)c1cccc(-c2ccc3c(c2)CCN3)c1
[1]
  IC50: 120 µM
[2]
  inhibition: 66%

## CCOC(=O)c1cccc(-c2ccc(OCC)cc2)n1
[1]
  IC50: 60 µM
[2]
  inhibition: 79%

## CCOc1ccc(-c2cccc(NC(C)=O)c2)cc1
[1]
  IC50: 200 µM
[2]
  inhibition: 52%

## CCOC(=O)c1cccc(-c2ccc3c(ccn3C)c2)c1
[1]
  IC50: 75 µM
[2]
  inhibition: 84%

## CCOC(=O)c1cccc(-c2ccc(OC)cc2)c1
[1]
  IC50: 80 µM
[2]
  inhibition: 77%

## CCOC(=O)c1cccc(-c2ccc(CN3CCN(C)CC3)o2)c1
[1]
  IC50: 120 µM
[2]
  inhibition: 67%

## CCOc1ccc(-c2cccc(C(=O)OCCOC)c2)cc1
[1]
  IC50: 70 µM
[2]
  inhibition: 89%

## CCCCOC(=O)c1cccc(-c2ccc(OCC)cc2)c1
[1]
  IC50: 100 µM
[2]
  inhibition: 61%

## CCOC(=O)c1cncc(-c2ccc(OCC)cc2)c1
[1]
  IC50: 130 µM
[2]
  inhibition: 70%

## CCOc1ccc(-c2cccc(C(=O)N3CCCC3)c2)cc1
[1]
  IC50: 160 µM
[2]
  inhibition: 53%

## CCOC(=O)c1cc(-c2ccc(OCC)cc2)ccn1
[1]
  IC50: 105 µM
[2]
  inhibition: 72%

## CCOC(=O)c1cccc(-c2ccc(CN3CCCCC3)cc2)c1
[1]
  IC50: 75 µM
[2]
  inhibition: 68%

## CCOC(=O)c1cccc(-c2ccc(OCC)cc2)c1
[1]
  IC50: 50 µM
[2]
  inhibition: 87%

## COC(=O)Nc1cccc(-c2ccc(N(C)C)cc2)c1
[1]
  IC50: 5 µM
[2]
  inhibition: 95%

## CCOC(=O)c1cccc(-c2ccc(Br)cc2)c1
[3]
  IC50: > 200 µM
[4]
  inhibition: 34%
